Measured values published in patent publication US20260103465A1, “GLYCOGEN SYNTHASE KINASE 3 INHIBITORS AND USES THEREOF” (The Broad Institute, Inc., priority 2023, published 2026).
Where two headings read alike, the source gives them in different places.

Columns and labels:
[1] = molecular target: T1, GSK3b (GST-full length GSK3b) (Homo sapiens, UniProt P49841); test: GSK3b TR-FRET kinase inhibition assay; format: biochemical
T1 construct: GST-full length GSK3b: [SignalChem G08-9G]; purchased SignalChem G08-9G
How it was run: (§1)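 IC50 derived from normalized 665/615 TR-FRET signal (Tb anti-pSer641 antibody, streptavidin-d2), read after EDTA stop. Reaction: 1 nM GST-full-length enzyme, 30 min compound pre-incubation, 100 min at ambient temperature in Tris pH 7.5 with 1% DMSO, 200 nM biotinylated primed glycogen synthase peptide, ATP 2 μM to 1 mM.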

[2] = molecular target: T2, GSK3a (GST-full length GSK3a) (Homo sapiens, UniProt P49840); test: GSK3a TR-FRET kinase inhibition assay; format: biochemical
T2 construct: GST-full length GSK3a [SignalChem G08-10G]; purchased SignalChem G08-10G
How it was run: as §1

[3] = 1 mM ATP, Table 3, read-out: GSK3b TR-FRET 1 mM ATP Average IC50
[4] = 1 mM ATP, Table 3, read-out: GSK3a TR-FRET 1 mM ATP Average IC50
[5] = 2 μM ATP, read-out: GSK3β TR-FRET 2 μM ATP GMean IC50
[6] = 4 μM ATP, read-out: GSK3α TR-FRET 4 μM ATP GMean IC50

T2 sequence (P49840 whole entry): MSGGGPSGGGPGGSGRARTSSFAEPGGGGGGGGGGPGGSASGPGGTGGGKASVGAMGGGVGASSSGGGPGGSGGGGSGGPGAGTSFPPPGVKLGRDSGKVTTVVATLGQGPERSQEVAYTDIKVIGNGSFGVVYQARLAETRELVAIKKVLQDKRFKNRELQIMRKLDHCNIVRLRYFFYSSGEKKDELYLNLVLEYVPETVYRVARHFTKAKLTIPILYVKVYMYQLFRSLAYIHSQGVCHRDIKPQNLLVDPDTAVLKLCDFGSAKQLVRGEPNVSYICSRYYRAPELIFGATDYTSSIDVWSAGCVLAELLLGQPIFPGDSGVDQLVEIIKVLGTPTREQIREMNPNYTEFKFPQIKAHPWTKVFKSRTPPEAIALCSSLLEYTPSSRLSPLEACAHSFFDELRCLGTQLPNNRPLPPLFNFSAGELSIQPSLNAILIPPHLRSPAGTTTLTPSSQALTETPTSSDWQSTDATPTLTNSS
T1 sequence (P49841 whole entry): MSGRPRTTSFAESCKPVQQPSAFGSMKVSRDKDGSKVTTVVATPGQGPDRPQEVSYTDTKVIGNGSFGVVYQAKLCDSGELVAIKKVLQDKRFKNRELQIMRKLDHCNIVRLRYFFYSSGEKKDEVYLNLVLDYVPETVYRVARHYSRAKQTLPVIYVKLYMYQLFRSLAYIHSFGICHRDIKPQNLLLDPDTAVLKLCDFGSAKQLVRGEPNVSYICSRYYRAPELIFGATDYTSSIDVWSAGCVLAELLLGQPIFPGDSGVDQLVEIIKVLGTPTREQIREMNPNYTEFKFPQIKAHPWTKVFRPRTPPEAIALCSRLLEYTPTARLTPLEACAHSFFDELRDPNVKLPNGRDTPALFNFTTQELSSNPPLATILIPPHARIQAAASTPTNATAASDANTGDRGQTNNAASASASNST

| SMILES | IC50 [1, 3] | IC50 [2, 4] | further results |
| --- | --- | --- | --- |
| CC1(C)CC(=O)C2=C(C1)Nc1ncccc1C2(C)c1cccc(-c2ccncc2)c1 (single isomer, unassigned) [Compound 131B] | 1000 to 5000 nM | 1000 to 5000 nM |  |
| CC1(C)CC(=O)C2=C(C1)Nc1nccc(CC(F)(F)F)c1C2(C)c1ccccc1 (single isomer, unassigned) [Compound 132A] | 1000 to 5000 nM | 1000 to 5000 nM |  |
| CC1(C)CC(=O)C2=C(C1)Nc1nccc(CC(F)(F)F)c1C2(C)c1ccccc1 (single isomer, unassigned) [Compound 132B] | 1000 to 5000 nM | 5000 to 20000 nM |  |
| CC1(C)CC(=O)C2=C(C1)Nc1ncc(F)c(C(F)(F)F)c1C2(C)c1ccccc1 (single isomer, unassigned) [Compound 135A] | 100 to 1000 nM | 100 to 1000 nM |  |
| CC1(C)CC(=O)C2=C(C1)Nc1ncc(F)c(C(F)(F)F)c1C2(C)c1ccccc1 (single isomer, unassigned) [Compound 135B] | 1000 to 5000 nM | 5000 to 20000 nM |  |
| CC1(C)CC(=O)C2=C(C1)Nc1ncc(C(F)(F)F)c(F)c1C2(C)c1ccccc1 (single isomer, unassigned) [Compound 136A] | 5000 to 20000 nM | 5000 to 20000 nM |  |
| CC1(C)CC(=O)C2=C(C1)Nc1ncc(C(F)(F)F)c(F)c1C2(C)c1ccccc1 (single isomer, unassigned) [Compound 136B] | 5000 to 20000 nM | 5000 to 20000 nM |  |
| CC1(C)CC(=O)C2=C(C1)Nc1ncc(C(F)(F)F)c(C#N)c1C2(C)c1ccccc1 (single isomer, unassigned) [Compound 137A] | 100 to 1000 nM | 1000 to 5000 nM |  |
| CC1(C)CC(=O)C2=C(C1)Nc1ncc(C(F)(F)F)c(C#N)c1C2(C)c1ccccc1 (single isomer, unassigned) [Compound 137B] | 1000 to 5000 nM | 1000 to 5000 nM |  |
| CC1(C)CC(=O)C2=C(C1)Nc1ncc(F)cc1C2(C)c1cccc(S(C)(=O)=O)c1 (single isomer, unassigned) [Compound 139B] | 5000 to 20000 nM | 5000 to 20000 nM |  |
| CC1(C)CC(=O)C2=C(C1)Nc1ncc(Br)c(F)c1C2(C)c1ccccc1 (single isomer, unassigned) [Compound 140A] | 100 to 1000 nM | 1000 to 5000 nM |  |
| CC1(C)CC(=O)C2=C(C1)Nc1ncc(Br)c(F)c1C2(C)c1ccccc1 (single isomer, unassigned) [Compound 140B] | 5000 to 20000 nM | 5000 to 20000 nM |  |
| CC1(C)CC(=O)C2=C(C1)Nc1ncc(C(F)(F)F)c(Cl)c1C2(C)c1ccccc1 (single isomer, unassigned) [Compound 141A] | 1000 to 5000 nM | 5000 to 20000 nM |  |
| CC1(C)CC(=O)C2=C(C1)Nc1ncc(C(F)(F)F)c(Cl)c1C2(C)c1ccccc1 (single isomer, unassigned) [Compound 141B] | 1000 to 5000 nM | 1000 to 5000 nM |  |
| Cc1c(F)cnc2c1C(C)(c1cccc(S(C)(=O)=O)c1)C1=C(CC(C)(C)CC1=O)N2 (single isomer, unassigned) [Compound 144A] | 100 to 1000 nM | 100 to 1000 nM |  |
| Cc1c(F)cnc2c1C(C)(c1cccc(S(C)(=O)=O)c1)C1=C(CC(C)(C)CC1=O)N2 (single isomer, unassigned) [Compound 144B] | 5000 to 20000 nM | 5000 to 20000 nM |  |
| CC1(C)CC(=O)C2=C(C1)Nc1ncc(Br)c(Cl)c1C2(C)c1ccccc1 (single isomer, unassigned) [Compound 145A] | 1000 to 5000 nM | 1000 to 5000 nM |  |
| CC1(C)CC(=O)C2=C(C1)Nc1ncc(Br)c(Cl)c1C2(C)c1ccccc1 (single isomer, unassigned) [Compound 145B] | 5000 to 20000 nM | 5000 to 20000 nM |  |
| CCC1(c2cccc(-c3ccnc(C)c3C)c2)C2=C(CC(C)(C)CC2=O)Nc2ncccc21 (single isomer, unassigned) [Compound 147A] | 1000 to 5000 nM | 100 to 1000 nM |  |
| CC1(C)CC(=O)C2=C(C1)Nc1ncc(F)c(C#N)c1C2(C)c1cccc(S(C)(=O)=O)c1 (single isomer, unassigned) [Compound 148A] | ≤ 100 nM | ≤ 100 nM |  |
| CC1(C)CC(=O)C2=C(C1)Nc1ncc(F)c(C#N)c1C2(C)c1cccc(S(C)(=O)=O)c1 (single isomer, unassigned) [Compound 148B] | 5000 to 20000 nM | 5000 to 20000 nM |  |
| CCC1(c2cccc(-c3cncn3C(C)C)c2)C2=C(CC(C)(C)CC2=O)Nc2ncccc21 (single isomer, unassigned) [Compound 149B] |  |  | IC50 [1, 5]: 100 to 1000 nM; IC50 [2, 6]: 100 to 1000 nM |

| SMILES | IC50 [1, 3] | IC50 [2, 4] | further results |
| --- | --- | --- | --- |
| CC1(C)CC(=O)C2=C(C1)Nc1ncccc1C2(C)c1cccc(-c2ccncc2C2CCC2)c1 (single isomer, unassigned) [Compound 151A] | 1000 to 5000 nM | 1000 to 5000 nM |  |
| CC1(C)CC(=O)C2=C(C1)Nc1ncccc1C2(C)c1cccc(-c2ccncc2C(C)(C)C)c1 (single isomer, unassigned) [Compound 152A] | 5000 to 20000 nM | 1000 to 5000 nM |  |
| CC1(C)CC(=O)C2=C(C1)Nc1ncc(F)c(C3CC3)c1C2(C)c1cccc(S(C)(=O)=O)c1 (single isomer, unassigned) [Compound 153A] | ≤ 100 nM | ≤ 100 nM |  |
| CC1(C)CC(=O)C2=C(C1)Nc1ncc(F)c(C3CC3)c1C2(C)c1cccc(S(C)(=O)=O)c1 (single isomer, unassigned) [Compound 153B] | 5000 to 20000 nM | 5000 to 20000 nM |  |
| COc1cncc(F)c1-c1cccc(C2(C)C3=C(CC(C)(C)CC3=O)Nc3ncc(C)cc32)c1 (single isomer, unassigned) [Compound 155A] | 1000 to 5000 nM | 100 to 1000 nM |  |
| COc1cncc(F)c1-c1cccc(C2(C)C3=C(CC(C)(C)CC3=O)Nc3ncc(C)cc32)c1 (single isomer, unassigned) [Compound 155B] | 5000 to 20000 nM | 5000 to 20000 nM |  |
| COc1cncc(F)c1-c1cccc(C2(C)C3=C(CC(C)(C)CC3=O)Nc3ncc(F)cc32)c1 (single isomer, unassigned) [Compound 156A] | 100 to 1000 nM | ≤ 100 nM |  |
| COc1cncc(F)c1-c1cccc(C2(C)C3=C(CC(C)(C)CC3=O)Nc3ncc(F)cc32)c1 (single isomer, unassigned) [Compound 156B] | 5000 to 20000 nM | 5000 to 20000 nM |  |
| CC1(C)CC(=O)C2=C(C1)Nc1ncc(C(F)(F)F)cc1C2(C)c1cccc(S(C)(=O)=O)c1 (single isomer, unassigned) [Compound 157A] | 100 to 1000 nM | 1000 to 5000 nM |  |
| CC1(C)CC(=O)C2=C(C1)Nc1ncc(C(F)(F)F)cc1C2(C)c1cccc(S(C)(=O)=O)c1 (single isomer, unassigned) [Compound 157B] | 5000 to 20000 nM | 5000 to 20000 nM |  |
| CC1(C)CC(=O)C2=C(C1)Nc1ncccc1C2(C)c1cccc(-c2ccncc2N2CCCC2)c1 (single isomer, unassigned) [Compound 158A] | 100 to 1000 nM | 100 to 1000 nM |  |
| CC(C)(C)Cn1nccc1-c1cccc(C2(C)C3=C(CC(C)(C)CC3=O)Nc3ncc(F)cc32)c1 (single isomer, unassigned) [Compound 160A] | 100 to 1000 nM | 100 to 1000 nM |  |
| CC1(C)CC(=O)C2=C(C1)Nc1ncccc1C2(C)c1cccc(-c2ccncc2OCC(F)F)c1 (single isomer, unassigned) [Compound 162A] | 1000 to 5000 nM | 5000 to 20000 nM |  |
| CC1(C)CC(=O)C2=C(C1)Nc1ncccc1C2(C)c1cccc(-c2ccncc2OCC(F)F)c1 (single isomer, unassigned) [Compound 162B] | 100 to 1000 nM | 100 to 1000 nM |  |
| CC1(C)CC(=O)C2=C(C1)Nc1ncccc1C2(C)c1cccc(-c2ccncc2CC(F)(F)F)c1 (single isomer, unassigned) [Compound 163A] | 100 to 1000 nM | 100 to 1000 nM |  |
| CC1(C)CC(=O)C2=C(C1)Nc1ncccc1C2(C)c1cccc(-c2ccncc2N2CCOCC2)c1 (single isomer, unassigned) [Compound 164A] | 1000 to 5000 nM | 1000 to 5000 nM |  |
| CCC1(c2cccc(-c3ccnc4c3CCCC4)c2)C2=C(CC(C)(C)CC2=O)Nc2ncc(F)cc21 (single isomer, unassigned) [Compound 165A] | 100 to 1000 nM | 100 to 1000 nM | IC50 [1, 5]: > 5000 nM; IC50 ([1]; 10 μM ATP, read-out: GSK3b 10 μM ATP Average IC50): ≤ 100 nM; IC50 ([1]; 100 μM ATP, read-out: GSK3b 100 μM ATP Average IC50): ≤ 100 nM; IC50 [2, 6]: 1000 to 5000 nM; IC50 ([2]; 10 μM ATP, read-out: GSK3a 10 μM ATP Average IC50): ≤ 100 nM; IC50 ([2]; 100 μM ATP, read-out: GSK3a 100 μM ATP Average IC50): ≤ 100 nM |
| CC1(C)CC(=O)C2=C(C1)Nc1ncc(F)c(C(F)(F)F)c1C2(C)c1cccc(S(C)(=O)=O)c1 (single isomer, unassigned) [Compound 166A] | 100 to 1000 nM | 100 to 1000 nM |  |
| CC1(C)CC(=O)C2=C(C1)Nc1ncc(F)c(C(F)(F)F)c1C2(C)c1cccc(S(C)(=O)=O)c1 (single isomer, unassigned) [Compound 166B] | 5000 to 20000 nM | 5000 to 20000 nM |  |
| COc1cncc(F)c1-c1cccc(C2(C)C3=C(CC(C)(C)CC3=O)Nc3ncc(C4CC4)cc32)c1 (single isomer, unassigned) [Compound 167A] | 100 to 1000 nM | 100 to 1000 nM |  |
| COc1cncc(F)c1-c1cccc(C2(C)C3=C(CC(C)(C)CC3=O)Nc3ncc(C4CC4)cc32)c1 (single isomer, unassigned) [Compound 167B] | 1000 to 5000 nM | 1000 to 5000 nM |  |
| CC1(C)CC(=O)C2=C(C1)Nc1ncc(F)cc1C2(C)c1cccc(-c2c(F)cncc2CC2CC2)c1 (single isomer, unassigned) [Compound 169A] | 100 to 1000 nM | 100 to 1000 nM |  |
